Laboratory results from patent US12630563B2, “Macrocyclic RIP2-kinase inhibitors” (Oncodesign S.A., priority 2020, dated 2026).

Biological target: T1, recombinant hRIPK2 protein (kinase domain aa 1-299-His-tagged) (Homo sapiens, UniProt O43353)
T1 construct: kinase domain aa 1-299-His-tagged; purchased Life Technologies PR7829A
Assay: RIPK2 AlphaLISA assay (displacement of bead-bound CZC-8004 from hRIPK2)
Assay type: binding
Details: recombinant hRIPK2 kinase domain 10 nM, 2 h at 23° C.
Procedure, shortened: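 His-tagged kinase domain (10 nM, as diluted) was mixed with compound (0.8% DMSO), acceptor beads bearing the probe CZC-8004 and Ni2+ donor beads. After 2 h at 23 °C, AlphaLISA signal was read. Loss of signal reflects displacement of the probe from RIPK2.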

T1 sequence (O43353 1-299): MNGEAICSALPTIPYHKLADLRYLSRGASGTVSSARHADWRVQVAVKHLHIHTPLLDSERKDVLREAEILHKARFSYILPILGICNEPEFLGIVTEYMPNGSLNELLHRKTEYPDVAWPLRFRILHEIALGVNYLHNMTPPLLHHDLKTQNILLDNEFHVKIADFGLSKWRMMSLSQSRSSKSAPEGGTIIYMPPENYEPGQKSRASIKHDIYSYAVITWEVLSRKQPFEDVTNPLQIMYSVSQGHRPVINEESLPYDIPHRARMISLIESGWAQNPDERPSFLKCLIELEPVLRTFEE

Q: Which IC50 does the source give for COc1cc2cc(c1)-c1cnn3ccc(nc13)OC[C@@H]1C[C@@H](OC)C(=O)N1CC(C)N2 (single isomer, unassigned) [Example 105, (8R*,12R,14S)-4,12-dimethoxy-8-methyl-16-oxa-7,10,20,21,24-pentaazapentacyclo[15.5.2.1^2,6.0^1°,^14.0^2°,^23]pentacosa-1(23),2,4,6(25),17(24),18,21-heptaen-11-one] here?
A: Its IC50 is < 10 nM.

Q: For COCCO[C@@H]1C[C@H]2COc3nc4c(cnn4cc3OCCCN(C)C)-c3cc(cc(OC)c3)NCCN2C1=O [Example 127, (12R,14S)-18-[3-(dimethylamino)propoxy]-4-methoxy-12-(2-methoxyethoxy)-16-oxa-7,10,20,21,24-pentaazapentacyclo[15.5.2. 1^2,6.0^10,^14.0^20,^23]pentacosa-1(23),2,4,6(25),17(24),18,21-heptaen-11-one], which IC50 is on record?
A: The IC50 was < 10 nM.

Q: How did the IC50 turn out when [2H]C([2H])([2H])C([2H])([2H])O[C@@H]1C[C@H]2COc3ccn4ncc(c4n3)-c3cc(cc(OC)c3)NCCN2C1=O [Example 110, (12R,14S)-12-(H5)ethoxy-4-methoxy-16-oxa-7,10,20,21,24-pentaazapentacyclo[15.5.2. 1^2,6.0^10,^14.0^20,^23]pentacosa-1(23),2,4,6(25),17(24),18,21-heptaen-11-one] was run?
A: Its IC50 is < 10 nM.

Q: For CO[C@@H]1C[C@H]2COc3nc4c(cnn4cc3C)-c3cc(cc(OCC4CCOC4)c3)NCCN2C1=O (stereo partly drawn) [Example 50, (12R,14S)-12-methoxy-18-methyl-4-(oxolan-3-ylmethoxy)-16-oxa-7,10,20,21,24-pentaazapentacyclo[15.5.2.1^2,6.0^10,^14.0^20,^23]pentacosa-1(23),2,4,6(25),17(24),18,21-heptaen-11-one], which IC50 is on record?
A: Its IC50 is 10 to 100 nM.

Q: With COc1cc2cc(c1)-c1cnn3ccc(nc13)OC[C@@H]1C[C@@H](OC)C(=O)N1CC(C)N2 (single isomer, unassigned) [Example 106, (8R*,12R,14S)-4,12-dimethoxy-8-methyl-16-oxa-7,10,20,21,24-pentaazapentacyclo[15.5.2.1^2,6.0^1°,^14.0^2°,^23]pentacosa-1(23),2,4,6(25),17(24),18,21-heptaen-11-one] as the compound, how does the IC50 read?
A: The IC50 was 10 to 100 nM.

Q: COCCO[C@@H]1C[C@H]2COc3nc4c(cnn4cc3OC3COC3)-c3cc(cc(OC)c3)NCCN2C1=O [Example 138, (12R,14S)-4-methoxy-12-(2-methoxyethoxy)-18-(oxetan-3-yloxy)-16-oxa-7,10,20,21,24-pentaazapentacyclo[15.5.2. 1^2,6.0^10,^14.0^20,^23]pentacosa-1(23),2,4,6(25),17(24),18,21-heptaen-11-one] was tested. Which IC50 did it give?
A: The IC50 was < 10 nM.

Q: For CO[C@@H]1C[C@H]2COc3nc4c(cnn4cc3C)-c3cc(F)cc(c3)NCCN2C1=O [Example 30, (12R,14S)-4-fluoro-12-methoxy-18-methyl-16-oxa-7,10,20,21,24-pentaazapentacyclo[15.5.2.1^2,6.0^10,^14.0^20,^23]pentacosa-1(23),2(25),3,5,17(24),18,21-heptaen-11-one], which IC50 is on record?
A: Its IC50 is < 10 nM.

Q: With COCCO[C@@H]1C[C@H]2COc3nc4c(cnn4cc3OC)-c3cc(cc(C(C)=O)c3)NCCN2C1=O [Example 99, (12R,14S)-4-acetyl-18-methoxy-12-(2-methoxyethoxy)-16-oxa-7,10,20,21,24-pentaazapentacyclo[15.5.2.1^2,6.0^10,^14.0^20,^23]pentacosa-1(23),2(25),3,5,17(24),18,21-heptaen-11-one] as the compound, how does the IC50 read?
A: The IC50 was < 10 nM.

Q: CCN(C)C(=O)c1cc2cc(c1)-c1cnn3ccc(nc13)OC[C@@H]1C[C@@H](OC)C(=O)N1CCN2 [Example 56, (12R,14S)-N-ethyl-12-methoxy-N-methyl-11-oxo-16-oxa-7,10,20,21,24-pentaazapentacyclo[15.5.2.1^2,6.0^10,^14.0^20,^23]pentacosa-1(23),2,4,6(25),17(24),18,21-heptaene-4-carboxamide] was tested. Which IC50 did it give?
A: The IC50 was < 10 nM.

Q: Which IC50 does the source give for C#Cc1cc2cc(c1)-c1cnn3ccc(nc13)OC[C@@H]1C[C@@H](OC)C(=O)N1CCN2 [Example 70, (12R,14S)-4-ethynyl-12-methoxy-16-oxa-7,10,20,21,24-pentaazapentacyclo[15.5.2.1^2,6.0^1°,^14.0^2°,^23]pentacosa-1(23),2(25),3,5,17(24),18,21-heptaen-11-one] here?
A: The IC50 was < 10 nM.

Q: COCC1C[C@H]2COc3ccn4ncc(c4n3)-c3cc(F)cc(c3)NCCN2C1=O (single isomer, unassigned) [Example 32] was tested. Which IC50 did it give?
A: The IC50 was < 10 nM.

Q: Which IC50 does the source give for CO[C@@H]1C[C@H]2COc3nc4c(cnn4cc3C)-c3cc(cc(OCc4cnn(C)c4)c3)NCCN2C1=O [Example 51, (12R,14S)-12-methoxy-18-methyl-4-[(1-methyl-1H-pyrazol-4-yl)methoxy]-16-oxa-7,10,20,21,24-pentaazapentacyclo[15.5.2.1^2,6.0^10,^14.0^20,^23]pentacosa-1(23),2,4,6(25),17(24),18,21-heptaen-11-one] here?
A: The IC50 was 100 to 11000 nM.

Q: How did the IC50 turn out when C#Cc1cc2cc(c1)-c1cnn3cc(C)c(nc13)OC[C@@H]1C[C@@H](OC)C(=O)N1CCN2 [Example 71] was run?
A: The IC50 was < 10 nM.

Q: With CO[C@@H]1C[C@H]2COc3ccn4ncc(c4n3)-c3cc(F)cc(c3)N(C)CCN2C1=O [Example 75, (12R,14S)-4-fluoro-12-methoxy-7-methyl-16-oxa-7,10,20,21,24-pentaazapentacyclo[15.5.2.1^2,6.0^1°,^14.0^2°,^23]pentacosa-1(23),2(25),3,5,17(24),18,21-heptaen-11-one] as the compound, how does the IC50 read?
A: The IC50 was 10 to 100 nM.

Q: How did the IC50 turn out when COCCO[C@@H]1C[C@H]2COc3ccn4ncc(c4n3)-c3cc(cc(OC)c3)NCCN2C1=O [Example 47, (12R,14S)-4-methoxy-12-(2-methoxyethoxy)-16-oxa-7,10,20,21,24-pentaazapentacyclo[15.5.2.1^2,6.0^10,^14.0^20,^23]pentacosa-1(23),2(25),3,5,17(24),18,21-heptaen-11-one] was run?
A: The IC50 was < 10 nM.

Q: For O=C1[C@H](OC2CCC2)C[C@H]2COc3ccn4ncc(c4n3)-c3cc(F)cc(c3)NCCN12 [Example 10, (12R,14S)-12-cyclobutoxy-4-fluoro-16-oxa-7,10,20,21,24-pentaazapentacyclo[15.5.2.1^2,6.0^10,^14.0^20,^23]pentacosa-1(23),2,4,6(25),17(24),18,21-heptaen-11-one], which IC50 is on record?
A: The IC50 was < 10 nM.

Q: With C=Cc1cc2cc(c1)-c1cnn3ccc(nc13)OC[C@@H]1C[C@@H](OCC)C(=O)N1CCN2 [Example 102, (12R,14S)-4-ethenyl-12-ethoxy-16-oxa-7,10,20,21,24-pentaazapentacyclo[15.5.2.1^2,6.0^1°,^14.0^2°,^23]pentacosa-1(23),2,4,6(25),17(24),18,21-heptaen-11-one] as the compound, how does the IC50 read?
A: The IC50 was < 10 nM.

Q: With [2H]C([2H])([2H])O[C@@H]1C[C@H]2COc3ccn4ncc(c4n3)-c3cc(F)cc(c3)NCCN2C1=O [Example 36, (12R,14S)-4-fluoro-12-(^2H3)methoxy-16-oxa-7,10,20,21,24-pentaazapentacyclo[15.5.2.1^2,6.0^10,^14.0^20,^23]pentacosa-1(23),2(25),3,5,17(24),18,21-heptaen-11-one] as the compound, how does the IC50 read?
A: Its IC50 is < 10 nM.

Q: With CO[C@@H]1C[C@H]2COc3nc4c(cnn4cc3C)-c3cc(cc(C(=O)N(C)OC)c3)NCCN2C1=O [Example 63, (12R,14S)-N,12-dimethoxy-N,18-dimethyl-11-oxo-16-oxa-7,10,20,21,24-pentaazapentacyclo[15.5.2.1^2,6.0^10,^14.0^20,^23]pentacosa-1(23),2,4,6(25),17(24),18,21-heptaene-4-carboxamide] as the compound, how does the IC50 read?
A: The IC50 was < 10 nM.
